Assay results: article PMC6045489 (ACS Omega, 2018)

Key:
[1] = tested on: HeLa cervical cancer cell line; experiment: Sulforhodamine B antiproliferative assay, HeLa; type: cell-based; conditions: Homo sapiens, read-out: IC50 HeLa, mean ± SEM
[2] = tested on: MDA-MB-231 human breast adenocarcinoma cell line; experiment: Sulforhodamine B antiproliferative assay, MDA-MB-231; type: cell-based; conditions: MDA-MB-231, read-out: IC50 MDA-MB-231, mean ± SEM
[3] = tested on: DU-145 prostate cancer cell line; experiment: Sulforhodamine B antiproliferative assay, DU-145; type: cell-based; conditions: Homo sapiens, DU-145, read-out: IC50 DU-145, mean ± SEM
[4] = tested on: A549 lung cancer cell line; experiment: Sulforhodamine B antiproliferative assay, A549; type: cell-based; conditions: Homo sapiens, A549, read-out: IC50 A549, mean ± SEM
[5] = tested on: HEK-293 primary human embryonic kidney cell line; experiment: Sulforhodamine B assay, control cell line HEK-293; type: cell-based; conditions: HEK293, read-out: IC50 HEK-293, mean ± SEM, normal control cells
DU-145 cells = experiment: Immunoblot of apoptotic proteins; type: cell-based, human; conditions: DU-145, immunoblot, vs vehicle control
HeLa cells = conditions: read-out: IC50 HeLa (reported literature value); cited from earlier work

Row | Compound | IC50 [1] [µM] | IC50 [2] [µM] | IC50 [3] [µM] | IC50 [4] [µM] | IC50 [5] [µM] | Annexin V protein expression (DU-145 cells) | BAX protein expression (DU-145 cells) | IC50 (HeLa cells) [µM]
1 | C#CCCCC[C@H](C)C[C@@H](C)C(=O)O [Compound 2, (2R,4S)-2,4-Dimethyldec-9-ynoic Acid] | 122 ± 14 | 164 ± 20 | 123 ± 20 | 167 ± 12 | 259 ± 35 | – | – | –
2 | jahanyne | – | – | – | – | – | – | – | 1.8
3 | C#CCCCC[C@H](C)C[C@@H](C)C(=O)N1C(=O)OC[C@H]1Cc1ccccc1 [Compound 17, (R)-4-Benzyl-3-((2R,4S)-2,4-dimethyldec-9-ynoyl)oxazolidin-2-one] | 160 ± 10 | 102 ± 14 | 188 ± 29 | 158 ± 15 | 293 ± 16 | – | – | –

Continued, in another order:

Row | IC50 [1] [µM] | IC50 [2] [µM] | IC50 [3] [µM] | IC50 [4] [µM] | Compound | IC50 [5] [µM] | Annexin V protein expression (DU-145 cells) | BAX protein expression (DU-145 cells) | IC50 (HeLa cells) [µM]
4 | – | 1 ± 0.1 | 0.5 ± 0.2 | 1 ± 0.1 | COc1cccc2c1C(=O)c1c(O)c3c(c(O)c1C2=O)C[C@@](O)(C(=O)CO)C[C@@H]3O[C@H]1C[C@H](N)[C@H](O)[C@H](C)O1 [doxorubicin, reference compound] | 39 ± 2 | highly expressed | highly expressed | –
5 | 5 ± 1 | 3 ± 0.1 | 1 ± 0.9 | 5 ± 0.4 | CC(=O)[C@@H]1CCCN1C(=O)[C@@H]1CCCN1C(=O)OC(C)(C)C [Compound 21, tert-Butyl(S)-2-((S)-2-acetylpyrrolidine-1-carbonyl)pyrrolidine-1-carboxylate] | 5440 ± 245 | – | – | –
6 | 26 ± 3 | 8 ± 0.4 | 2 ± 0.8 | 0.5 ± 0.03 | CC(O)[C@@H]1CCCN1C(=O)[C@@H]1CCCN1C(=O)OC(C)(C)C (mixture of isomers) [Compound 22, (2S)-tert-Butyl 2-((2S)-2-(1-Hydroxyethyl)pyrrolidine-1-carbonyl)pyrrolidine-1-carboxylate] | 3390 ± 123 | – | – | –
